From PMC7756341, “Liposomal FRET Assay Identifies Potent Drug‐Like Inhibitors of the Ceramide Transport Protein (CERT)” (Chemistry (Weinheim an Der Bergstrasse, Germany), 2020)
Values joined by “and” are separate entries in the source; they are usually repeats but may differ in a detail not shown here. Equal values may be shown once.

How the values were obtained:
HeLa cells [1] = assay: Cellular localization of BODIPY-ceramide by confocal microscopy; type: cell-based; conditions: 10 µM inhibitor, 2 h
Procedure: 5.1 Cellular Localization of BODIPY-Ceramide
HeLa cells were seeded in 8 well chamber slides (ibidi µ-Slide 8 Well) in RPMI 1640 medium supplemented with 10% (v/v) heat‐inactivated FCS, 1 mM sodium pyruvate and 2 mM L-glutamine at 37 °C and 5% (v/v) CO2 in a humidified incubator. The day after, cells were incubated with inhibitors for 2 h at a concentration of 10 µM or left untreated by replacing the medium with fresh medium supplemented with the respective inhibitors. After 2 h of incubation, BODIPY FL C5-ceramide (Thermo Fisher) was added to a final concentration of 0,25 µM and imaging was immediately done using an LSM 780 laser scanning confocal microscope (Carl Zeiss). No additional wash steps were performed. After 1 h of incubation, DNA was counterstained using Hoechst 33342. For quantification of BODIPY-Ceramide trafficking, cells were transfected with pECFP-GalT the day before inhibitor incubation for the expression of an eCFP fusion of the human galactosyltransferase (GalT; amino acids 1-60), which localizes at the Golgi apparatus. After incubation with the respective inhibitors (see above), cells were imaged at 30 min post addition of BODIPY FL C5-ceramide. Mean BODIPY intensities of regions of interest surrounding eCFP-GalT-positive Golgi stacks were measured (40 cells per biological replicate, 4 biological replicates in total) using ImageJ software (Rasband, W.S., ImageJ, U. S. National Institutes of Health, Bethesda, Maryland, USA, https://imagej.nih.gov/ij/, 1997-2018) and divided by the total BODIPY intensity detected in the field of view. Quantification (Fig 10B) is expressed as normalized intensity ratio (GA/total).
Figure S10. A Uptake of BODIPY FL C5-ceramide to HeLa cells assessed by normalized fluorescence intensity B Distribution of BODIPY FL C5-ceramide by normalized fluorescence […]
(§1) (1 picture or pasted object on this page, not shown here)
Figure S11. BODIPY-Ceramide trafficking. Confocal images showing distribution of BODIPY FL C5-ceramide (green) and Golgi apparatus costaining (eCFP-GalT; blue) in HeLa cells pretreated with 10 µM of respective inhibitors or left untreated. Figures show representative images (n = 4 biological replicates with 40 cells per biological replicate); scale bars, 10 µm.

HeLa cells [2] = assay: Sphingolipid content of treated HeLa cells by quantitative mass spectrometry; type: cell-based; conditions: for Cer16 / Cer18 / Cer20 / Cer22 / Cer24 / Cer24:1 / Cer total / S1P / SM16 / SM18 / SM20 / SM22 / SM24 / SM24:1 / SM total / Sph / ratio total SM/Cer: HeLa, 42h, single replicates; for Cer16 / Cer18 / Cer20 / Cer22 / Cer24 / Cer24:1 / Cer total / S1P / SM16 / SM18 / SM20 / SM22 / SM24 / SM24:1 / SM total / Sph: 500.000 cells per sample
Procedure: 5.2 Cellular experiment for lipidomic analysis
Hela cells were cultured in six well plates (177000 cells per well) under standard growth conditions (DMEM with 4mM L-glutamine, 10% FBS, 1% Penicillin-Streptomycin; CO2 incubator with […]
37°C, 5% CO2). […]
After incubation, […]
the adherent cells were washed twice with ice-cold PBS and harvested by treatment with trypsin.
Cells were counted using a Countess II cell counter ( Invitrogen) and adjusted to 500.000 cells per sample. Each sample was then treated as described below.
6. Details for experimental lipidomics
Cells were subjected to lipid extraction using 1.5 mL methanol/chloroform (2:1, v:v) as described. The extraction solvent contained C17-ceramide (Cer17) and C16 -d31-sphingomyelin (d31-SM16) (both Avanti Polar Lipids, Alabaster, USA) as internal standards. Chromatographic separations were achieved on a 1260 Infinity HPLC (Agilent Technologies, Waldbronn, Germany) equipped with a Poroshell 120 EC-C8 column (3.0 × 150 mm, 2.7 µm; Agilent Technologies). A mobile phase system consisting of water (solvent A) and acetonitrile/methanol (1:1, v:v; solvent B), both acidified with 0.1% formic acid, was used for gradient elution at an initial composition of 40:60 (A:B, v:v) and a flow rate of 0.5 mL/min. MS/MS analyses were carried out using a 6490 triple-quadrupole mass spectrometer (Agilent Technologies) operating in the positive electrospray ionization mode (ESI+). The following ion source parameters were set: sheath gas temperature, 375 °C; sheath gas flow, 12 L/min of nitrogen; nebulizer pressure, 30 psi; drying gas temperature, 200 °C; drying gas flow, 15 L/min of nitrogen; capillary voltage, 4000 V; nozzle voltage, 1500 V; iFunnel high pressure RF voltage, 150 V and iFunnel low pressure RF voltage, 60 V. The following mass transitions were recorded (collision energies of 25 eV for all transitions): ceramides: m/z […]
with MassHunter Software (Agilent Technologies). Significance of differences between two samples was calculated by student’s t -test. Asterisks indicate significant differences between treated and untreated samples: * p<0.05; ** p<0.01; *** p<0.005.
Table S1. Sphingolipid content of treated cells.
as §1

CCCC(=O)OCOC(=O)C1=C(C)NC(C)=C(C(=O)OC)C1c1cccc(Cl)c1Cl (stereo not drawn) [6B11, Clevidipine butyrate]
effect on intracellular distribution of BODIPY-Cer (HeLa cells [1]): only minor effects | effect on SM/Cer rate (HeLa cells [2]; HeLa cells): dramatically increased | effect on total sphingomyelin (HeLa cells [2]; HeLa cells, 48 hours, serum-reduced medium): no significant changes | Cer16 (HeLa cells [2]; 1 µM): 35,47 pmol/sample and 30,33 pmol/sample and 32,28 pmol/sample | Cer18 (HeLa cells [2]; 1 µM): 3,21 pmol/sample and 3,62 pmol/sample and 2,31 pmol/sample | Cer20 (HeLa cells [2]; 1 µM): 0,82 pmol/sample and 1,87 pmol/sample and 0,75 pmol/sample | Cer22 (HeLa cells [2]; 1 µM): 6,64 pmol/sample and 6,96 pmol/sample and 5,21 pmol/sample | Cer24 (HeLa cells [2]; 1 µM): 21,95 pmol/sample and 20,24 pmol/sample and 18,20 pmol/sample | Cer24:1 (HeLa cells [2]; 1 µM): 41,58 pmol/sample and 36,60 pmol/sample and 35,42 pmol/sample | Cer total (HeLa cells [2]; 1 µM): 109,68 pmol/sample and 101,56 pmol/sample and 92,23 pmol/sample | S1P (HeLa cells [2]; 1 µM): 1,30 pmol/sample (2×) and 1,12 pmol/sample | SM16 (HeLa cells [2]; 1 µM): 1664,57 pmol/sample and 1753,19 pmol/sample and 1827,88 pmol/sample | SM18 (HeLa cells [2]; 1 µM): 49,35 pmol/sample and 48,17 pmol/sample and 50,13 pmol/sample | SM20 (HeLa cells [2]; 1 µM): 16,44 pmol/sample and 17,01 pmol/sample and 16,12 pmol/sample | SM22 (HeLa cells [2]; 1 µM): 97,77 pmol/sample and 109,23 pmol/sample and 104,57 pmol/sample | SM24 (HeLa cells [2]; 1 µM): 148,40 pmol/sample and 164,36 pmol/sample and 157,65 pmol/sample | SM24:1 (HeLa cells [2]; 1 µM): 734,55 pmol/sample and 781,78 pmol/sample and 776,18 pmol/sample | SM total (HeLa cells [2]; 1 µM): 2711,09 pmol/sample and 2873,72 pmol/sample and 2932,53 pmol/sample | Sph (HeLa cells [2]; 1 µM): 2,93 pmol/sample and 3,14 pmol/sample and 2,69 pmol/sample | ratio total SM/Cer (HeLa cells [2]; 1 µM): 29,4 and 26,2 and 28,9 | Cer16 (HeLa cells [2]; 2.5 µM): 31,11 pmol/sample and 34,56 pmol/sample and 32,33 pmol/sample | Cer18 (HeLa cells [2]; 2.5 µM): 2,90 pmol/sample and 3,36 pmol/sample and 2,45 pmol/sample | Cer20 (HeLa cells [2]; 2.5 µM): 1,10 pmol/sample and 1,04 pmol/sample and 0,67 pmol/sample | Cer22 (HeLa cells [2]; 2.5 µM): 6,09 pmol/sample and 6,54 pmol/sample and 4,24 pmol/sample | Cer24 (HeLa cells [2]; 2.5 µM): 19,85 pmol/sample and 19,17 pmol/sample and 13,13 pmol/sample | Cer24:1 (HeLa cells [2]; 2.5 µM): 35,16 pmol/sample and 36,98 pmol/sample and 34,53 pmol/sample | Cer total (HeLa cells [2]; 2.5 µM): 96,21 pmol/sample and 101,65 pmol/sample and 87,36 pmol/sample | S1P (HeLa cells [2]; 2.5 µM): 1,11 pmol/sample (2×) and 1,10 pmol/sample | SM16 (HeLa cells [2]; 2.5 µM): 1754,78 pmol/sample and 1844,30 pmol/sample and 1802,54 pmol/sample | SM18 (HeLa cells [2]; 2.5 µM): 52,01 pmol/sample and 48,63 pmol/sample and 47,35 pmol/sample | SM20 (HeLa cells [2]; 2.5 µM): 16,63 pmol/sample and 16,52 pmol/sample and 14,33 pmol/sample | SM22 (HeLa cells [2]; 2.5 µM): 104,73 pmol/sample and 101,64 pmol/sample and 87,68 pmol/sample | SM24 (HeLa cells [2]; 2.5 µM): 164,67 pmol/sample and 154,96 pmol/sample and 126,92 pmol/sample | SM24:1 (HeLa cells [2]; 2.5 µM): 701,62 pmol/sample and 752,78 pmol/sample and 753,00 pmol/sample | SM total (HeLa cells [2]; 2.5 µM): 2780,44 pmol/sample and 2845,61 pmol/sample and 2919,05 pmol/sample | Sph (HeLa cells [2]; 2.5 µM): 3,54 pmol/sample and 2,83 pmol/sample and 2,99 pmol/sample | ratio total SM/Cer (HeLa cells [2]; 2.5 µM): 31,8 and 29,6 and 28,7 | Cer16 (HeLa cells [2]; 5 µM): 29,66 pmol/sample and 34,26 pmol/sample and 31,66 pmol/sample | Cer18 (HeLa cells [2]; 5 µM): 2,65 pmol/sample and 3,21 pmol/sample and 2,71 pmol/sample | Cer20 (HeLa cells [2]; 5 µM): 0,74 pmol/sample and 0,90 pmol/sample and 0,79 pmol/sample | Cer22 (HeLa cells [2]; 5 µM): 5,38 pmol/sample and 6,67 pmol/sample and 6,09 pmol/sample | Cer24 (HeLa cells [2]; 5 µM): 17,46 pmol/sample and 20,37 pmol/sample and 20,18 pmol/sample | Cer24:1 (HeLa cells [2]; 5 µM): 36,92 pmol/sample and 40,53 pmol/sample and 39,54 pmol/sample | Cer total (HeLa cells [2]; 5 µM): 92,81 pmol/sample and 105,93 pmol/sample and 100,96 pmol/sample | S1P (HeLa cells [2]; 5 µM): 1,11 pmol/sample and 1,25 pmol/sample and 1,08 pmol/sample | SM16 (HeLa cells [2]; 5 µM): 1762,30 pmol/sample and 1782,59 pmol/sample and 1722,69 pmol/sample | SM18 (HeLa cells [2]; 5 µM): 53,21 pmol/sample and 52,89 pmol/sample and 50,26 pmol/sample | SM20 (HeLa cells [2]; 5 µM): 17,74 pmol/sample and 18,28 pmol/sample and 16,92 pmol/sample | SM22 (HeLa cells [2]; 5 µM): 109,54 pmol/sample and 111,84 pmol/sample and 106,91 pmol/sample | SM24 (HeLa cells [2]; 5 µM): 166,35 pmol/sample and 172,87 pmol/sample and 164,46 pmol/sample | SM24:1 (HeLa cells [2]; 5 µM): 783,66 pmol/sample and 796,71 pmol/sample and 771,15 pmol/sample | SM total (HeLa cells [2]; 5 µM): 2892,80 pmol/sample and 2935,19 pmol/sample and 2832,39 pmol/sample | Sph (HeLa cells [2]; 5 µM): 2,83 pmol/sample and 2,13 pmol/sample and 3,03 pmol/sample | ratio total SM/Cer (HeLa cells [2]; 5 µM): 31,2 and 27,7 and 28,1
